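Compound exposure: 48 hours, 5 concentrations, 96-well plates. At the TGI there is no net growth.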
Key:
Test in all cases: growth of human tumour cells (NCI), 48 h
MDA-MB-231 breast = tested on: MDA-MB-231 breast
CAKI-1 renal = tested on: CAKI-1 renal
NCI/ADR-RES ovarian = tested on: NCI/ADR-RES ovarian
SF-539 CNS = tested on: SF-539 CNS
HOP-62 NSCLC = tested on: HOP-62 NSCLC
SK-MEL-2 melanoma = tested on: SK-MEL-2 melanoma
NCI-H522 lung = tested on: NCI-H522 lung
OVCAR-8 ovarian = tested on: OVCAR-8 ovarian
SF-268 CNS = tested on: SF-268 CNS
UO-31 renal = tested on: UO-31 renal
HT29 colon = tested on: HT29 colon
MOLT-4 leukemia = tested on: MOLT-4 leukemia
ACHN renal = tested on: ACHN renal
PC-3 prostate = tested on: PC-3 prostate
MDA-MB-435 = tested on: MDA-MB-435
COLO 205 colon = tested on: COLO 205 colon
NCI-H460 lung = tested on: NCI-H460 lung
BT-549 breast = tested on: BT-549 breast
A549 NSCLC = tested on: A549 NSCLC
M14 melanoma = tested on: M14 melanoma
SK-MEL-5 melanoma = tested on: SK-MEL-5 melanoma
HCC-2998 colon = tested on: HCC-2998 colon
OVCAR-3 ovarian = tested on: OVCAR-3 ovarian
HOP-92 NSCLC = tested on: HOP-92 NSCLC
MCF7 breast = tested on: MCF7 breast
OVCAR-4 ovarian = tested on: OVCAR-4 ovarian
UACC-257 melanoma = tested on: UACC-257 melanoma
CCRF-CEM leukemia = tested on: CCRF-CEM leukemia
SN12C renal = tested on: SN12C renal
T-47D breast = tested on: T-47D breast
IGROV1 ovarian = tested on: IGROV1 ovarian
UACC-62 melanoma = tested on: UACC-62 melanoma
HL-60(TB) leukemia = tested on: HL-60(TB) leukemia
SNB-75 CNS = tested on: SNB-75 CNS
DU-145 prostate = tested on: DU-145 prostate
EKVX NSCLC = tested on: EKVX NSCLC
OVCAR-5 ovarian = tested on: OVCAR-5 ovarian
RPMI-8226 leukemia = tested on: RPMI-8226 leukemia
NCI-H23 lung = tested on: NCI-H23 lung
KM12 colon = tested on: KM12 colon
SF-295 CNS = tested on: SF-295 CNS
LOX IMVI melanoma = tested on: LOX IMVI melanoma
SNB-19 CNS = tested on: SNB-19 CNS
MALME-3M melanoma = tested on: MALME-3M melanoma
HS 578T breast = tested on: HS 578T breast
HCT-15 colon = tested on: HCT-15 colon
SK-MEL-28 melanoma = tested on: SK-MEL-28 melanoma
NCI-H226 lung = tested on: NCI-H226 lung
786-0 renal = tested on: 786-0 renal
U251 CNS = tested on: U251 CNS
SK-OV-3 ovarian = tested on: SK-OV-3 ovarian
MDA-N = tested on: MDA-N
RXF 393 renal = tested on: RXF 393 renal
SW-620 colon = tested on: SW-620 colon
HCT-116 colon = tested on: HCT-116 colon
A498 renal = tested on: A498 renal
TK-10 renal = tested on: TK-10 renal
SR leukemia = tested on: SR leukemia
K-562 leukemia = tested on: K-562 leukemia

Question: Which TGI (MDA-MB-231 breast) does the source give for `COc1cc2cc(C(=O)N3CC(CCl)c4c3cc(NC(=O)OCc3ccc([N+](=O)[O-])cc3)c3ccccc43)[nH]c2c(OC)c1OC` (centres undefined) here?
Answer: > 81.5 µM

Question: And the TGI (CAKI-1 renal)?
Answer: > 39.4 µM

Question: And the TGI (NCI/ADR-RES ovarian)?
Answer: > 100 µM

Question: And the TGI (SF-539 CNS)?
Answer: > 100 µM

Question: What about the TGI (HOP-62 NSCLC) of the same compound?
Answer: > 100 µM

Question: What about the TGI (SK-MEL-2 melanoma) of the same compound?
Answer: > 100 µM

Question: What about the TGI (NCI-H522 lung) of the same compound?
Answer: > 76.7 µM

Question: And the TGI (OVCAR-8 ovarian)?
Answer: > 100 µM

Question: And the TGI (SF-268 CNS)?
Answer: > 81.2 µM

Question: What about the TGI (UO-31 renal) of the same compound?
Answer: 0.516 µM

Question: What about the TGI (HT29 colon) of the same compound?
Answer: > 100 µM

Question: And the TGI (MOLT-4 leukemia)?
Answer: > 100 µM

Question: What about the TGI (ACHN renal) of the same compound?
Answer: > 34.5 µM

Question: And the TGI (PC-3 prostate)?
Answer: > 100 µM

Question: And the TGI (MDA-MB-435)?
Answer: > 100 µM

Question: What about the TGI (COLO 205 colon) of the same compound?
Answer: > 100 µM

Question: And the TGI (NCI-H460 lung)?
Answer: > 39.1 µM

Question: What about the TGI (BT-549 breast) of the same compound?
Answer: > 100 µM

Question: And the TGI (A549 NSCLC)?
Answer: > 100 µM

Question: What about the TGI (M14 melanoma) of the same compound?
Answer: > 100 µM

Question: What about the TGI (SK-MEL-5 melanoma) of the same compound?
Answer: > 100 µM

Question: And the TGI (HCC-2998 colon)?
Answer: 16.3 µM

Question: What about the TGI (OVCAR-3 ovarian) of the same compound?
Answer: > 100 µM

Question: And the TGI (HOP-92 NSCLC)?
Answer: > 90.5 µM

Question: What about the TGI (MCF7 breast) of the same compound?
Answer: > 100 µM

Question: What about the TGI (OVCAR-4 ovarian) of the same compound?
Answer: > 100 µM

Question: And the TGI (UACC-257 melanoma)?
Answer: > 100 µM

Question: What about the TGI (CCRF-CEM leukemia) of the same compound?
Answer: > 57.6 µM

Question: What about the TGI (SN12C renal) of the same compound?
Answer: > 100 µM

Question: And the TGI (T-47D breast)?
Answer: > 100 µM

Question: What about the TGI (IGROV1 ovarian) of the same compound?
Answer: > 90 µM

Question: And the TGI (UACC-62 melanoma)?
Answer: > 100 µM

Question: What about the TGI (HL-60(TB) leukemia) of the same compound?
Answer: > 38.5 µM

Question: What about the TGI (SNB-75 CNS) of the same compound?
Answer: 67.3 µM

Question: What about the TGI (DU-145 prostate) of the same compound?
Answer: 18 µM

Question: And the TGI (EKVX NSCLC)?
Answer: > 100 µM

Question: What about the TGI (OVCAR-5 ovarian) of the same compound?
Answer: > 100 µM

Question: What about the TGI (RPMI-8226 leukemia) of the same compound?
Answer: > 100 µM

Question: And the TGI (NCI-H23 lung)?
Answer: > 45.4 µM

Question: And the TGI (KM12 colon)?
Answer: > 74.2 µM

Question: And the TGI (SF-295 CNS)?
Answer: > 56.2 µM

Question: And the TGI (LOX IMVI melanoma)?
Answer: > 100 µM

Question: What about the TGI (SNB-19 CNS) of the same compound?
Answer: > 100 µM

Question: What about the TGI (MALME-3M melanoma) of the same compound?
Answer: > 100 µM

Question: And the TGI (HS 578T breast)?
Answer: > 100 µM

Question: And the TGI (HCT-15 colon)?
Answer: > 100 µM

Question: And the TGI (SK-MEL-28 melanoma)?
Answer: > 100 µM

Question: What about the TGI (NCI-H226 lung) of the same compound?
Answer: > 100 µM

Question: And the TGI (786-0 renal)?
Answer: > 39.3 µM

Question: And the TGI (U251 CNS)?
Answer: > 100 µM

Question: What about the TGI (SK-OV-3 ovarian) of the same compound?
Answer: > 100 µM

Question: And the TGI (MDA-N)?
Answer: > 100 µM

Question: And the TGI (RXF 393 renal)?
Answer: > 100 µM

Question: What about the TGI (SW-620 colon) of the same compound?
Answer: > 100 µM

Question: What about the TGI (HCT-116 colon) of the same compound?
Answer: > 79.8 µM

Question: What does the source list for `CSCCCS/C1=C/CCCCCCCCCC1`?
Answer: TGI (MDA-MB-231 breast): > 100 µM; TGI (CAKI-1 renal): > 100 µM; TGI (NCI/ADR-RES ovarian): > 100 µM; TGI (SF-539 CNS): > 100 µM; TGI (HOP-62 NSCLC): > 100 µM; TGI (SK-MEL-2 melanoma): > 100 µM; TGI (A498 renal): > 100 µM; TGI (SF-268 CNS): > 100 µM; TGI (UO-31 renal): > 100 µM; TGI (HT29 colon): > 100 µM; TGI (MOLT-4 leukemia): > 100 µM; TGI (ACHN renal): > 100 µM; TGI (PC-3 prostate): > 100 µM; TGI (MDA-MB-435): > 100 µM; TGI (COLO 205 colon): > 100 µM; TGI (NCI-H460 lung): > 100 µM; TGI (A549 NSCLC): > 100 µM; TGI (M14 melanoma): > 100 µM; TGI (SK-MEL-5 melanoma): > 100 µM; TGI (HCC-2998 colon): > 100 µM; TGI (OVCAR-3 ovarian): > 100 µM; TGI (HOP-92 NSCLC): > 100 µM; TGI (MCF7 breast): > 100 µM; TGI (OVCAR-4 ovarian): > 100 µM; TGI (UACC-257 melanoma): > 100 µM; TGI (SN12C renal): > 100 µM; TGI (T-47D breast): > 100 µM; TGI (IGROV1 ovarian): > 100 µM; TGI (UACC-62 melanoma): > 100 µM; TGI (HL-60(TB) leukemia): > 100 µM; TGI (TK-10 renal): > 100 µM; TGI (SNB-75 CNS): > 100 µM; TGI (DU-145 prostate): > 100 µM; TGI (EKVX NSCLC): > 100 µM; TGI (OVCAR-5 ovarian): > 100 µM; TGI (RPMI-8226 leukemia): > 100 µM; TGI (NCI-H23 lung): > 100 µM; TGI (KM12 colon): > 100 µM; TGI (SF-295 CNS): > 100 µM; TGI (LOX IMVI melanoma): > 100 µM; TGI (SNB-19 CNS): > 100 µM; TGI (MALME-3M melanoma): > 100 µM; TGI (HS 578T breast): > 100 µM; TGI (HCT-15 colon): > 100 µM; TGI (SR leukemia): > 100 µM; TGI (SK-MEL-28 melanoma): > 100 µM; TGI (NCI-H226 lung): > 100 µM; TGI (786-0 renal): > 100 µM; TGI (U251 CNS): > 100 µM; TGI (SK-OV-3 ovarian): > 100 µM; TGI (MDA-N): > 100 µM; TGI (RXF 393 renal): > 100 µM; TGI (K-562 leukemia): > 100 µM; TGI (HCT-116 colon): > 100 µM

Source: PubChem BioAssay (NCI)
